Results taken from patent US9714233B2, “Processes and intermediates for making a JAK inhibitor” (Incyte Corporation, priority 2013, dated 2017).
pIC50: −log10 of the molar value.

Molecular target: T1, human JAK1 (a.a. 837-1142) catalytic domain (Homo sapiens, UniProt P23458)
T1 construct: human JAK1 (a.a. 837-1142); His tag (N); made in house; host or cells: insect cells (baculovirus)
Assay: In vitro JAK kinase assay (HTRF, phosphorylation of biotinylated peptide), JAK1
Assay type: biochemical
Settings: measured at 1 mM ATP
Procedure: The compound of Formula I was tested for inhibitory activity of JAK targets according to the following in vitro assay described in Park et al., Analytical Biochemistry 1999, 269, 94-104. The catalytic domains of human JAK1 (a.a. 837-1142) and JAK2 (a.a. 828-1132) with an N-terminal His tag were expressed using baculovirus in insect cells and purified. The catalytic activity of JAK1 and JAK2 was assayed by measuring the phosphorylation of a biotinylated peptide. The phosphorylated peptide was detected by homogenous time resolved fluorescence (HTRF). IC50s of compounds were measured for each kinase in the 40 microL reactions that contain the enzyme, ATP and 500 nM peptide in 50 mM Tris (pH 7.8) buffer with 100 mM NaCl, 5 mM DTT, and 0.1 mg/mL (0.01%) BSA. For the 1 mM IC50 measurements, ATP concentration in the reactions was 1 mM. Reactions were carried out at room temperature for 1 hr and then stopped with 20 μL 45 mM EDTA, 300 nM SA-APC, 6 nM Eu-Py20 in assay buffer (Perkin Elmer, Boston, Mass.). Binding to the Europium labeled antibody took place for 40 minutes and HTRF signal was measured on a Fusion plate reader (Perkin Elmer, Boston, Mass.).

T1 sequence (P23458 849-1154 limits assumed): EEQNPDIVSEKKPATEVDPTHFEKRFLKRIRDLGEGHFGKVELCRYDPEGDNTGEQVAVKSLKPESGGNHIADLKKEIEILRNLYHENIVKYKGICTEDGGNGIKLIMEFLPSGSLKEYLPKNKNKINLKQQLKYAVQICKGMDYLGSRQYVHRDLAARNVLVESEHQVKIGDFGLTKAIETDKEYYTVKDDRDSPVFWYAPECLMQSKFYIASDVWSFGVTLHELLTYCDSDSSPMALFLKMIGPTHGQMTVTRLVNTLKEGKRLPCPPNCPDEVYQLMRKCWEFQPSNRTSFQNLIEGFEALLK

pIC50: ≥ 8.30
Compound: N#CCC1(n2cc(-c3ncnc4[nH]ccc34)cn2)CN(C2CCN(C(=O)c3ccnc(C(F)(F)F)c3F)CC2)C1 [Formula I, {1-{1-[3-fluoro-2-(trifluoromethyl)isonicotinoyl]piperidin-4-yl}-3-[4-(7H-pyrrolo[2,3-d]pyrimidin-4-yl)-1H-pyrazol-1-yl]azetidin-3-yl}acetonitrile]
